According to ChEMBL document CHEMBL2424656, “Analogues of the Inhoffen-Lythgoe diol with anti-proliferative activity” (Bioorg Med Chem Lett, 2013):
The source made the active and inactive calls. No cut-off for these calls is given here.

Legend:
[1] = Growth inhibition of human U87MG cells after 72 hrs by MTS-PMS assay; type: functional, U-87MG ATCC; conditions: U-87 MG
HT-29 [2] = assay: Growth inhibition of human HT-29 cells after 72 hrs by MTS-PMS assay; type: functional; conditions: HT-29, 72 h
[3] = biological target: T1, Vitamin D3 receptor (Mus musculus) (UniProt P48281); assay: Activation of VDR in mouse C3H10T1/2 cells assessed as upregulation of CYP24A1 mRNA expression at 1 to 10 uM after 24 hrs by RT-PCR analysis; type: cell-based; conditions: C3H 10T1/2
T1 sequence (whole entry): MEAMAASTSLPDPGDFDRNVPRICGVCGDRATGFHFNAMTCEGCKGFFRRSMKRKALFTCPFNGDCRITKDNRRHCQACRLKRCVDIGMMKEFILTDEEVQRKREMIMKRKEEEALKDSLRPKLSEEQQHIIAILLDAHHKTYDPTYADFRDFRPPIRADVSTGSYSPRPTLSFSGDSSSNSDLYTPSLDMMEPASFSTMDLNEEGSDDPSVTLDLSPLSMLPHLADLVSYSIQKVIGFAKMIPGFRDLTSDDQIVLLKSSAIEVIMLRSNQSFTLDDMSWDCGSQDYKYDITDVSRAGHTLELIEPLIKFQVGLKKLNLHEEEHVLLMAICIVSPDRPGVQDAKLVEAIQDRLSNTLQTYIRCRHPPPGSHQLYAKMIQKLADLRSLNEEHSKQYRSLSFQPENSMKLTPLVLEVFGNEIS

[4] = biological target: T1, Vitamin D3 receptor (Mus musculus); assay: Activation of VDR in mouse C3H10T1/2 cells assessed as upregulation of CYP24A1 mRNA expression at 5 uM after 24 hrs by RT-PCR analysis relative to DMSO-treated control; type: cell-based; conditions: C3H 10T1/2
[5] = […] of hedgehog signaling in mouse C3H10T1/2 cells assessed as downregulation of GLI1 mRNA expression at 5 uM after 24 hrs by RT-PCR analysis in presence of oxysterol; type: cell-based; conditions: C3H 10T1/2
[6] = […] of hedgehog signaling in mouse C3H10T1/2 cells assessed as effect on GLI1 mRNA expression at 1 to 10 uM after 24 hrs by RT-PCR analysis in presence of oxysterol; type: cell-based; conditions: C3H 10T1/2
[7] = Cytotoxicity against mouse C3H10T1/2 cells at 10 uM after 24 hrs; type: cell-based; conditions: c3h 10t1/2, 24 h
HT-29 [8] = assay: Ratio of GI50 for human U87MG cells to GI50 for human HT-29 cells; type: functional

Row | Compound | GI50 [1] [µM] | GI50 (HT-29 [2]) [µM] | also measured
1 | COc1ccccc1C(=O)OC[C@@H](C)[C@H]1CC[C@H]2[C@@H](O)CCC[C@]12C | 56 | 35.7 | –
2 | C[C@H](COC(=O)c1ccncc1)[C@H]1CC[C@H]2[C@@H](O)CCC[C@]12C | > 100 | > 100 | –
3 | C[C@H](COC(=O)c1ccccc1)[C@H]1CC[C@H]2[C@@H](O)CCC[C@]12C | 24.6 | 22.6 | Activity [3]: inactive
4 | C[C@H](COC(=O)c1cccnc1)[C@H]1CC[C@H]2[C@@H](O)CCC[C@]12C | > 100 | 95.2 | –
5 | C[C@H](COC(=O)c1cccc(Cl)c1)[C@H]1CC[C@H]2[C@@H](O)CCC[C@]12C | 69 | 26.2 | –
6 | C=C1CC[C@H](O)C/C1=C/C=C1\CCC[C@]2(C)[C@@H]([C@H](C)CCCC(C)C)CC[C@@H]12 [CHOLECALCIFEROL] | – | 53.8 | fold change (FC) [4]: 8000; Activity [5]: Active
7 | C[C@H](COC(=O)C1CC1)[C@H]1CC[C@H]2[C@@H](O)CCC[C@]12C | > 100 | 82.6 | –
8 | C[C@H](COC(=O)C1CCCCC1)[C@H]1CC[C@H]2[C@@H](O)CCC[C@]12C | 11.2 | 15.2 | Activity [3]: inactive; Activity [6]: inactive
9 | C[C@H](COC(=O)c1cccc(O)c1)[C@H]1CC[C@H]2[C@@H](O)CCC[C@]12C | 76.9 | 70.3 | –
10 | CC(C)CC(=O)OC[C@@H](C)[C@H]1CC[C@H]2[C@@H](O)CCC[C@]12C | 56 | 47.5 | –
11 | C[C@H](CN)[C@H]1CC[C@H]2[C@@H](O)CCC[C@]12C | > 100 | > 100 | –
12 | C[C@H](COC(=O)c1ccccc1O)[C@H]1CC[C@H]2[C@@H](O)CCC[C@]12C | 18.8 | 14.1 | Activity [3]: inactive; Activity [7]: Toxic; Activity [6]: inactive
13 | C[C@H](COC(=O)c1ccccc1Cl)[C@H]1CC[C@H]2[C@@H](O)CCC[C@]12C | 46.8 | 14.4 | –
14 | C[C@H](COC(=O)c1ccc(Cl)cc1)[C@H]1CC[C@H]2[C@@H](O)CCC[C@]12C | 31.4 | 15.9 | RatioGI50 (HT-29 [8]): 2
15 | C[C@H](CNC(=O)c1ccccc1O)[C@H]1CC[C@H]2[C@@H](O)CCC[C@]12C | > 100 | 68.2 | –
16 | C[C@H](CNC(=O)c1ccc(Cl)cc1)[C@H]1CC[C@H]2[C@@H](O)CCC[C@]12C | 42.9 | 32.3 | –
17 | C[C@H](COC(=O)c1cccc2ccccc12)[C@H]1CC[C@H]2[C@@H](O)CCC[C@]12C | 39.2 | 35.3 | –
18 | C[C@H](COC(=O)c1ccc(O)cc1)[C@H]1CC[C@H]2[C@@H](O)CCC[C@]12C | 67 | 41 | –
19 | C[C@H](COC(=O)c1ccccc1)[C@H]1CC[C@H]2[C@@H](OC(=O)c3ccccc3)CCC[C@]12C | > 100 | > 100 | –
20 | C[C@H](COC(=O)C1CCCC1)[C@H]1CC[C@H]2[C@@H](O)CCC[C@]12C | 21.7 | 22.1 | –
21 | C[C@H](COC(=O)C(C)(C)C)[C@H]1CC[C@H]2[C@@H](O)CCC[C@]12C | 17.1 | 11.9 | Activity [3]: inactive; Activity [6]: inactive
22 | C[C@H](COC(=O)C1CCC1)[C@H]1CC[C@H]2[C@@H](O)CCC[C@]12C | 27.1 | 27 | –
23 | COc1ccc(C(=O)OC[C@@H](C)[C@H]2CC[C@H]3[C@@H](O)CCC[C@]23C)cc1 | 33.1 | 39.8 | –
24 | C[C@H](COC(=O)c1ccc2ccccc2c1)[C@H]1CC[C@H]2[C@@H](O)CCC[C@]12C | 51.3 | 19.8 | –
25 | C[C@H](COC(=O)c1ccco1)[C@H]1CC[C@H]2[C@@H](O)CCC[C@]12C | 79.1 | > 100 | –
26 | C[C@H](CNC(=O)C1CCCCC1)[C@H]1CC[C@H]2[C@@H](O)CCC[C@]12C | > 100 | 84.1 | –
27 | C[C@H](COC(=O)c1ccccn1)[C@H]1CC[C@H]2[C@@H](O)CCC[C@]12C | > 100 | > 100 | –
28 | COc1cccc(C(=O)OC[C@@H](C)[C@H]2CC[C@H]3[C@@H](O)CCC[C@]23C)c1 | 15.9 | 23.7 | –
